Measured values: patent US20250281517A1, “SENOLYSIS BY AMMONIA-LOWERING COMPONENT” (TAZ Inc., priority 2022, published 2025)

How the values were obtained:
p16 = experiment: mRNA expression level of p16, a marker of senescent cells, in tissues of aged mice (real-time RT-PCR, GAPDH as internal standard); assay type: in vivo; conditions: aged male C57BL/6J mice (78 weeks old), test substance in drinking water ad libitum for one month, compared to aged mice having no additional administration; for mRNA expression level of marker p16 for senescent cells in the hippocampus: FIG. 3
Description: (§1) As animals, experiments was performed using 7 young mice (male C57BL/6J mice, 7 weeks old) and 28 aged mice (male C57BL/6J-Aged mice, 78 weeks old).
(§2) Group 1 was constituted of young mice, and aged mice were divided into 4 groups each consisting of 7 mice (Groups 2 to 5) and the experimental conditions of individual groups are set as shown in the Table below.
(§3) As explained below, water comprising a test substance was given to the mice of Group 3 to Group 5.
(§4) The each types of drinking water which were prepared by adding a test substance as mentioned above was given to mice of each of the groups ad libitum, and the test substance was orally administered for one month. One month after the initiation of the experiment, all mice were sacrificed and dissected. From each of the mice, the liver, kidney, hippocampus and skeletal muscle were collected for measurement markers for senescent cells.
The tissues were collected from mice at the time of dissection and soaked in RNAlater (Ambion) overnight and thereafter stored at −80° C. Total RNA was extracted from the liver tissue by the TRIzol-chroloform method.
The tissue extracted from RNAlater (50 to 100 mg) was put in 1 ml of TRIzol Reagent (Invitrogen Life Technologies), crushed. After standing still at room temperature for 5 minutes, 0.2 ml of chloroform was added and stirred. After standing still at room temperature for 2 to 3 minutes, the mixture was centrifuged at 4° C. and 12,000×g for 15 minutes. The upper layer (250 micro l) was recovered and 0.5 ml of isopropanol was added. […]
(§5) The RNA was purified with 75% ethanol, evaporated to dry under reduced pressure, and dissolved in 50 micro l of RNA-free water. Using NanoDrop ND-1000 (NanoDrop Technologies), absorbance was measured at 260 nm and 280 nm to determination of an absorbance ratio (A260/280 nm), RNA purity was confirmed by checking whether or not the absorbance ratio falls within the range of 1.9 to 2.1.
Quantitative real-time PCR was performed using total RNA extracted from the tissue for analysis of mRNA expressions of senescence markers p16 and p21 commonly known in the technical field.
From the total RNA, CDNA was synthesized using PrimeScript (Registered trademark) RT reagent Kit (Perfect Real Time) in accordance with the protocol of the manufacturer. Then, CDNA was amplified by Thermal Cycler Dice Real Time System TP800 (Takara Bio) and fluorescence was detected by SYBR (Registered trademark) Premix Ex Taq™ (Perfect Real Time) and real-time PCR detection system (Takara Bio). […]
Using the mRNA expression of glyceraldehyde-3-phosphate dehydrogenase (GAPDH) as an internal standard for correction, the relative values of mRNAs of interest were calculated. […]

p21 = experiment: mRNA expression level of p21, a marker of senescent cells, in tissues of aged mice (real-time RT-PCR, GAPDH as internal standard); assay type: in vivo; conditions: aged male C57BL/6J mice (78 weeks old), test substance in drinking water ad libitum for one month, compared to aged mice having no additional administration
Description: as §1, §2, §3
as §4, with “From each of the mice, the liver, kidney, hippocampus and skeletal muscle were collected for measurement markers for senescent cells.” left out
as §5
Quantitative real-time PCR was performed using total RNA extracted from the tissue for analysis of mRNA expressions of senescence markers p16 and p21 commonly known in the technical field. […]

SMILES	mRNA expression level of marker p16 for senescent cells in the hippocampus (p16)	mRNA expression level of marker p21 for senescent cells in the kidney (p21; kidney, FIG. 1)	mRNA expression level of marker p21 for senescent cells in the liver (p21; liver, FIG. 2, upper panel)	mRNA expression level of marker p16 for senescent cells in the liver (p16; liver, FIG. 2, lower panel)	mRNA expression level of marker p16 for senescent cells in the skeletal muscle (p16; skeletal muscle, FIG. 4)
Cl.NCCC[C@H](N)C(=O)O [ornithine, L-ornithine hydrochloride]	decreased, although not significantly	–	–	–	–
OC[C@H]1O[C@@H](O[C@@H]2[C@@H](CO)OC(O)(CO)[C@H]2O)[C@H](O)[C@@H](O)[C@H]1O (mixture of isomers) [lactulose]	decreased, although not significantly	significantly decreased	tended to decrease	significantly decreased	decreased, although not significantly
